From US9902752B2, “5-fluorouracil derivatives” (B. Braun Melsungen AG, priority 2012, dated 2018)

Assay: Acidic stability (hydrolysis) of the O-2′,3′-ketal group
Format: physicochemical
Settings: 1N aqueous HCl/MeCN 1:1 (v/v), RP-18 HPLC, calculated graphically; read-out: half-life under acidic conditions
Protocol: Both, the acidic hydrolysis of the O-2′,3′-ketal moiety of the ester 28a as well as the chitosanase-catalyzed degradation of chitosan foil-bound 5-fluorouridine was measured. Acidic stability was determined by incubating compound 28a (2 mg) in 1N aqueous HCl/MeCN 1:1 (v/v), neutralization by Et3N and subsequent RP-18 HPLC analysis as described above (FIG. 12).
The faster migrating zone contains always pure 5-fluorouridine, the slower migrating zone the residual ketal 28a. The half-life value was calculated graphically from a plot of the peak integral of both, the residual ketals and 5-fluorouridine vs. reaction time (FIG. 13). Upon acidic hydrolysis only the nucleoside and no 5-fluorouracil were formed.

half-life: ~5 h
SMILES: CCOC(=O)CCC1(C)OC2C(O1)[C@@H](CO)O[C@H]2n1cc(F)c(=O)[nH]c1=O (stereo partly shown) [Compound 28a]
